# Data taken from patent publication US9980931B2, “Use of glycyl glutamine against depression” (priority 2013, dated 2018).
# Like-named read-outs stand apart in the source and are kept apart here. Peptide text beside a SMILES is read from it.
# Legend:
# [1] = test system: use of alcohol; settings: administered centrally (Resch et al., 2005; Simpson et al., 1998); cited from earlier work
# [2] = test system: GABA levels in the brain; settings: glutamine administration; cited from earlier work
# [3] = administered peripherally; cited from earlier work
# [4] = test system: cardiorespiratory depression; settings: Unal et al., 1997; cited from earlier work
# [5] = test system: serotonin output at the nucleus accumbency section of the brain; assay: Brain micro-dialysis, serotonin output after intracerebroventricular injection; type: in vivo, rats; settings: 100 nmol single intracerebroventricular dose; 2 hours monitoring; p<0.001; FIGS. 4 and 5
# Method: The source of the antidepressant effects of Gly-Gln, which is mentioned in the figure descriptions above, have been analyzed and shown in FIGS. 4 and 5. In FIGS. 4 and 5; the effect of Gly-Gin on the serotonin output at the nucleus accumbency section of the brain upon intracerebroventricular Gly-Gln injection can be seen. […] An increase in serotonin outputs can be observed in all time intervals throughout 2 hours of monitoring period following the Gly-Gln injection; however, no serotonin output could be observed from the rodents in the control group who had been administered saline injections by the same way. Serotonin, which is structurally a monoamine neurotransmitter, is a hormone, which makes people feel happy, energetic and lively. When, the subject matter hormone serotonin is deficient in people, they feel depressive, tired and boring. […] Furthermore, the word “Saline” indicated in FIGS. 4 and 5 means salty water. It is used for comparing with the tested medication by administering on the control group.
# [6] = test system: GABA levels in the brain; assay: GABA levels in the brain after administration; type: in vivo; settings: Gly-Gln administration; data from our laboratory
# From the text: This innovation is related with the use of glycyl-glutamine in the treatment and/or prophylaxis of depression disorder and/or anxiety, which meets all above-mentioned requirements, eliminates all disadvantages and provides some advantages. The purpose of the current invention is to use Glycyl-Glutamine (Gly-Gln) in the treatment and/or prophylaxis of depression and/or anxiety via its effects in the brain other than its metabolic products' (glycine and glutamine) separate effects. […] Glutamine exerts antidepressant effects by increasing gamma-aminobutyric acid (GABA) in the brain however Gly-Gln generates antidepressant effects by increasing serotonin levels in the brain. […] Although glutamine administration increases GABA levels in the brain.
# [7] = test system: brainstem of rodents; settings: applied on the brainstem of rodents iontophoretically (Parish et al., 1983); cited from earlier work
# [8] = test system: thermogenesis caused by alpha-MSH; settings: Resch and Millington, 1993; cited from earlier work
# [9] = test system: conditioned place preference caused by morphine; settings: Cavun et al., 2005; cited from earlier work
# [10] = test system: conditioned place preference (nicotine); settings: Goktalay et al., 2006; cited from earlier work
# [11] = test system: myocardial damage; settings: Zhang et al., 2013; cited from earlier work
molecule,measurement,setting,value
"beta-endorphin (YGGFMTSEKSQTPLVTLFKNAIIKNAYKKGE; Beta-endorphin; UniProt P01189 237-267, looked up) [endogenous peptide from which Gly-Gln is produced, reference compound]",use of alcohol,[1],increased
NC(=O)CC[C@H](N)C(=O)O [glutamine],GABA levels in the brain,[2],increases
NC(=O)CC[C@@H]1NC(=O)CNC1=O [cyclo Gly-Gln],crossing of the blood-brain barrier,[3],could be across
same,cardiorespiratory depression caused by beta-endorphin and morphine,[4],eliminated
"NCC(=O)N[C@@H](CCC(N)=O)C(=O)O [Gly-Gln, glycyl-glutamine] (H-Gly-Gln-OH)",serotonin output at the nucleus accumbency section of the brain,[5],extremely increased
same,GABA levels in the brain,[6],does not alter
same,crossing of the blood-brain barrier,[3],could not across
same,effect on cell ignition,[7],inhibiting effect
same,thermogenesis caused by alpha-MSH,[8],antagonized
same,cardiorespiratory depression caused by beta-endorphin,[4],eliminated
same,cardiorespiratory depression caused by beta-endorphin and morphine,[4],eliminated
same,use of alcohol,[1],decreased
same,addition and tolerance developments (morphine),[9],inhibited
same,conditioned place preference caused by morphine,[9],prevented
same,deprivation symptoms (morphine),[9],decreased
same,conditioned place preference and deprivation syndrome (nicotine),[10],prevented
same,effects on myocardial damage after severe burn injury,[11],beneficial effects
